Where two headings read alike, the source gives them in different places.
Experiments:
[1] = Metal chelating activity; details: ferrous chloride/ferrozine, 562 nm; mean ± SD of three measurements; read-out: IC50 Metal Chelate
Experimental: The chelating ability of synthesised compounds was examined according to the method of Dinis et al.[37]. The tested compounds at different concentrations were added to each well and 4 µL of 2 mM ferrous (II) chloride was added. Then 8 µL of 5 mM ferrozine was added and the reaction was started. After 10 min at room temperature, the absorbance was measured at 562 nm against a blank. The results were expressed as a percentage of inhibition of the ferrozine-Fe^2+ complex formation. The percentage inhibition of the ferrozine -Fe^2+ complex formation was calculated using the formula given below: Chelating ability (%)=(Acontrol−Asample)/Acontrol×100 where A is the absorbance. Tests were carried out in triplicate. EDTA was used as a positive control.

[2] = biological target: T1, hCA XII (Homo sapiens, UniProt O43570); test: CA inhibition, stopped flow CO2 hydrase assay; format: biochemical; details: mean from 3 assays, errors ± 5–10%
T1 construct: made in house
T1 sequence (O43570 25-354): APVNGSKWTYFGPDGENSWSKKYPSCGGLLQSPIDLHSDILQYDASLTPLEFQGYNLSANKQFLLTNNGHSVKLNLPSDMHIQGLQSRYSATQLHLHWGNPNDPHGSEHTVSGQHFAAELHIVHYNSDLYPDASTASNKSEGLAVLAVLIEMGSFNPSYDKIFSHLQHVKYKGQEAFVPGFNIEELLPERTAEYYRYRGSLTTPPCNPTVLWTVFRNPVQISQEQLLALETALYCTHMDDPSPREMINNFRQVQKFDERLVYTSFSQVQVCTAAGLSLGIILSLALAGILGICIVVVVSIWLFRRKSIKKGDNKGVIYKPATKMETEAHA
Experimental: (§1) An SX.18 MV-R Applied Photophysics (Oxford, UK) stopped-flow instrument has been used to assay the inhibition of various CA isozymes. Phenol Red (at a concentration of 0.2 mM) has been used as an indicator, working at the absorbance maximum of 557 nm, with 10 mM Hepes (pH 7.4) as a buffer, 0.1 M Na2SO4 or NaClO4 (for maintaining constant the ionic strength; […]. Stock solutions of inhibitors were prepared at a concentration of 10 mM (in DMSO-water 1:1, v/v) and dilutions up to 0.01 nM done with the assay buffer mentioned above. At least 7 different inhibitor concentrations have been used for measuring the inhibition constant. Inhibitor and enzyme solutions were pre-incubated together for 10 min at room temperature before assay, to allow for the formation of the E-I complex. Triplicate experiments were done for each inhibitor concentration, and the value reported throughout the paper is the mean of such results. The inhibition constants were obtained by nonlinear least-squares methods using the Cheng-Prusoff equation, as reported earlier, and represent the mean from at least three different determinations1[27–32]. All CA isozymes used here were recombinant proteins obtained as reported earlier by our group.

[3] = biological target: T2, hCA II (Homo sapiens, UniProt P00918); test: CA inhibition, stopped flow CO2 hydrase assay; format: biochemical; details: mean from 3 assays, errors ± 5–10%
T2 construct: made in house
Experimental: as §1

[4] = biological target: T3, hCA VII (Homo sapiens, UniProt P43166); test: biochemical; details: stopped flow CO2 hydrase assay; mean from 3 assays, errors ± 5–10%
T3 construct: made in house
T3 sequence (P43166 whole entry): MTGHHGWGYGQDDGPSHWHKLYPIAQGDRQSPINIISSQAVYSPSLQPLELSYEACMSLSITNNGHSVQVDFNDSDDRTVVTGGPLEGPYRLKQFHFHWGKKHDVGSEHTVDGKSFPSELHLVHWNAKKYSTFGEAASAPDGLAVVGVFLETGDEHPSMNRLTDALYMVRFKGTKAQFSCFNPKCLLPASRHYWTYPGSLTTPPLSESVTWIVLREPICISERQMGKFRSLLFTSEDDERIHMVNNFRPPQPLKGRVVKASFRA
Text: (§2) An SX.18 MV-R Applied Photophysics (Oxford, UK) stopped-flow instrument has been used to assay the inhibition of various CA isozymes[26]. […] The inhibition constants were obtained by nonlinear least-squares methods using the Cheng-Prusoff equation, as reported earlier, and represent the mean from at least three different determinations1[27–32].

[5] = biological target: T4, hCA IX (Homo sapiens, UniProt Q16790); test: biochemical; details: stopped flow CO2 hydrase assay; mean from 3 assays, errors ± 5–10%
T4 construct: made in house
Text: as §2

[6] = DPPH radical scavenging assay; details: 30 min in the dark, 517 nm; mean ± SD of three measurements; read-out: IC50 DPPH Free Radical
Experimental: The DPPH (2,2-diphenyl-1-picrylhydrazyl) radical scavenging activity of the synthesised compounds was determined by a spectrophotometric method based on the reduction of an ethanol solution of DPPH[33]^,[34]. 2, 5, 10, 20 µL of 1 mM stock solution of each compound was completed to 40 µL with the DMSO and mixed with 160 µL of 0.1 mM of DPPH free radical solution. The mixture was led to stand for 30 min in the dark and the absorbance was then measured at 517 nm against a blank. Inhibition of free radical, DPPH, in percent (I %), was calculated according to the formula: I %=(Acontrol−Asample)/Acontrol×100 where Acontrol is the absorbance of the control reaction (containing all reagents except for the tested compounds), and Asample is the absorbance of the test compounds. Tests were carried out in triplicate. BHA and BHT were used as positive control.

[7] = ABTS cation radical decolorisation assay; details: 6 min at room temperature, 734 nm; mean ± SD of three measurements
Experimental: The percent inhibition of decolorisation of ABTS [2,2′-azino-bis(3-ethylbenzothiazoline-6-sulfonic acid)] cation radical is obtained as a function of time and concentration and evaluated by comparison with the BHT and BHA compounds used as standard[35]^,[36]. The tested compounds at different concentrations are added to each well and 160 µL of 7 mM ABTS solution is added. After 6 min at room temperature, the absorbances were measured at 734 nm. ABTS cation radical decolorisation activities were determined by using the equation below: %Inhibition = (Acontrol−Asample)/Acontrol × 100 where A is the absorbance. Tests were carried out in triplicate. BHA and BHT were used as positive control.

[8] = biological target: T5, hCA IV (Homo sapiens, UniProt P22748); test: biochemical; details: stopped flow CO2 hydrase assay; mean from 3 assays, errors ± 5–10%
T5 construct: made in house
T5 sequence (P22748 19-312): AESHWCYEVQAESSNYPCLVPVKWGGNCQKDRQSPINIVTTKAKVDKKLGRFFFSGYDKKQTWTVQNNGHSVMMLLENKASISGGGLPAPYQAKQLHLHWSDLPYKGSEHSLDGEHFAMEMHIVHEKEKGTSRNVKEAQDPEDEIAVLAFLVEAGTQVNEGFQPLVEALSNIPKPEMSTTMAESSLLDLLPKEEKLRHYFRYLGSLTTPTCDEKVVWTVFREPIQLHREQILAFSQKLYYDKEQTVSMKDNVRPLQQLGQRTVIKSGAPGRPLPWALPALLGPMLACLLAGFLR
Text: as §2

[9] = biological target: T6, hCA I (Homo sapiens, UniProt P00915); test: biochemical; details: stopped flow CO2 hydrase assay; mean from 3 assays, errors ± 5–10%
T6 construct: made in house
T6 sequence (P00915 whole entry): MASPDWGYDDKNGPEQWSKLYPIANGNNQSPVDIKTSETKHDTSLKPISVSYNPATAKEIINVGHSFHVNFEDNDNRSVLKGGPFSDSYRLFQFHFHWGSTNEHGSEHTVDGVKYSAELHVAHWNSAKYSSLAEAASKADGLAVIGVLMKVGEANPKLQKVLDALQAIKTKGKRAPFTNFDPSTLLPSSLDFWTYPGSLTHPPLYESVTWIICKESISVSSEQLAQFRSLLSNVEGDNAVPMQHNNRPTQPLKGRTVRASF
Text: as §2

[10] = tested on: Tyrosinase from mushroom; test: Anti-tyrosinase activity (diphenolase, L-DOPA substrate); format: biochemical; details: at 200 µM
Experimental: Anti-tyrosinase activity of the compounds was performed according to the method designed by Hearing and Jimenez[39]. Firstly, the inhibition of diphenolase function of the compounds was evaluated and L-DOPA was used as substrate. Tyrosinase from mushroom (E.C. 1.14.18.1) (30 U, 28 nM) was dissolved in Na-phosphate buffer (pH = 6.8, […]) and the compounds were added to the solution for pre-incubation at room temperature for ten minutes. After incubation, 0.5 mM L-DOPA was added to the mixture and the change in absorbance was measured at 475 nm at 37 °C. For positive control, kojic acid was used. The following formula was used to calculate the percentage of all enzyme inhibitions: Inhibition (%) = (Acontrol–Asample)/Acontrol × 100

[11] = biological target: BChE (Homo sapiens, UniProt P06276); test: Anticholinesterase assay (Ellman), BChE; format: biochemical; details: read-out: BChE assay % inhibition
Sequence of BChE (P06276 29-602): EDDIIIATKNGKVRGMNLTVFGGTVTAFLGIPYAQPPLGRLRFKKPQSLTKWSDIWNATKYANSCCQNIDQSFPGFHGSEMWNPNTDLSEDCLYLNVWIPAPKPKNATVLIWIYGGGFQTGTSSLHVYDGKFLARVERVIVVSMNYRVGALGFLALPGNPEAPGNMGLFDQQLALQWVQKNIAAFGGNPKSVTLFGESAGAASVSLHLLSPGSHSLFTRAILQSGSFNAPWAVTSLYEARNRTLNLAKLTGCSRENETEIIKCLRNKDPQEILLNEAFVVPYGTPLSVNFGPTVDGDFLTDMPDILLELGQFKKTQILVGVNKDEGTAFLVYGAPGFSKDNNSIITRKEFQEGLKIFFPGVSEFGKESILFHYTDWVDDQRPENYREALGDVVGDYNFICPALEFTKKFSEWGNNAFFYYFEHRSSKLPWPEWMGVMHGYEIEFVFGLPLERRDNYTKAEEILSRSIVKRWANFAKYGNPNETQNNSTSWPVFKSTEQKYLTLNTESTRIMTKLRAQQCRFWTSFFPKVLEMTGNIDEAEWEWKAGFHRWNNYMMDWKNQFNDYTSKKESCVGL
Experimental: The inhibitory effect of novel calix[4]azacrown substituted sulphonamide Schiff bases CX(1–6) on AChE and BChE activities was determined according to the slightly modified spectrophotometric method of Ellman et al.[38]. All compounds were dissolved in DMSO to prepare stock solutions at 4 mM concentration. Aliquots of 150 µL of 100 mM sodium phosphate buffer (pH 8.0), 10 µL of sample solution and 20 µL AChE (or BChE) solution were mixed and incubated for 15 min at 25 °C, and DTNB [5,5′-Dithio-bis(2-nitro-benzoic)acid] (10 µL) is added. The reaction was then initiated by the addition of acetylthiocholine iodide (or butyrylthiocholine iodide) (10 µL). […]. Tests were carried out in triplicate. Galantamine was used as positive control.

SMILES	IC50 [1]	Ki [2]	Ki [3]	Ki [4]	Ki [5]	IC50 [6]	IC50 [7]	Ki [8]	Ki [9]	Tyrosinase activity % inhibition [10]	inhibition at 200 µM ([11]; at 200 µM)	inhibition at 200 µM [11]
Cc1ccc(S(=O)(=O)NN=Cc2cc3c(O)c(c2)Cc2cc(C(C)(C)C)cc4c2OCC(=O)NCCNC(=O)COc2c(cc(C(C)(C)C)cc2Cc2cc(C=NNS(=O)(=O)c5ccc(C)cc5)cc(c2O)C4)C3)cc1 [CX-5]	> 1000 µM	> 100 µM	> 100 µM	> 100 µM	> 100 µM	16.8 ± 0.85 µM	9.79 ± 0.09 µM	> 100 µM	> 100 µM	no activity	–	–
CC(=O)Nc1ccc(S(=O)(=O)NN=Cc2cc3c(O)c(c2)Cc2cc(C(C)(C)C)cc4c2OCC(=O)NCCNC(=O)COc2c(cc(C(C)(C)C)cc2Cc2cc(C=NNS(=O)(=O)c5ccc(NC(C)=O)cc5)cc(c2O)C4)C3)cc1 [CX-6]	> 1000 µM	> 100 µM	> 100 µM	> 100 µM	64.6 µM	9.02 ± 0.05 µM	7.74 ± 0.04 µM	> 100 µM	> 100 µM	28.15 ± 0.74%	35.4 ± 0.9%	–
Cc1cc(C(C)(C)C)c(O)c(C(C)(C)C)c1 [BHT, reference compound]	–	–	–	–	–	58.86 ± 0.5 µM	13.2 ± 0.27 µM	–	–	–	–	–
O=c1cc(CO)occ1O [Kojik acid, kojic acid, reference compound]	–	–	–	–	–	–	–	–	–	95.26 ± 0.23%	–	–
CC(C)(C)c1cc2c3c(c1)Cc1cc(C=Nc4ccc(S(=O)(=O)Nc5nc6ccccc6s5)cc4)cc(c1O)Cc1cc(C(C)(C)C)cc(c1OCC(=O)NCCNC(=O)CO3)Cc1cc(C=Nc3ccc(S(=O)(=O)Nc4nc5ccccc5s4)cc3)cc(c1O)C2 [CX-4]	> 1000 µM	> 100 µM	> 100 µM	> 100 µM	> 100 µM	520.3 ± 0.89 µM	> 1000 µM	> 100 µM	> 100 µM	16.48 ± 0.21%	–	–
CC(C)(C)c1cc2c3c(c1)Cc1cc(C=Nc4ccc(S(=O)(=O)Nc5ncccn5)cc4)cc(c1O)Cc1cc(C(C)(C)C)cc(c1OCC(=O)NCCNC(=O)CO3)Cc1cc(C=Nc3ccc(S(=O)(=O)Nc4ncccn4)cc3)cc(c1O)C2 [CX-3]	> 1000 µM	10.2 µM	> 100 µM	> 100 µM	46 µM	> 1000 µM	121 ± 0.95 µM	> 100 µM	> 100 µM	35.52 ± 0.82%	–	–
COc1ccc(O)c(C(C)(C)C)c1 [BHA, reference compound]	–	–	–	–	–	7.88 ± 0.2 µM	17.59 ± 0.1 µM	–	–	–	–	–
O=C(O)CN(CCN(CC(=O)O)CC(=O)O)CC(=O)O [EDTA, reference compound]	26.82 ± 0.1 µM	–	–	–	–	–	–	–	–	–	–	–
CC(C)(C)c1cc2c3c(c1)Cc1cc(C=Nc4ccc(S(N)(=O)=O)cc4)cc(c1O)Cc1cc(C(C)(C)C)cc(c1OCC(=O)NCCNC(=O)CO3)Cc1cc(C=Nc3ccc(S(N)(=O)=O)cc3)cc(c1O)C2 [CX-1]	> 1000 µM	0.27 µM	0.82 µM	1.21 µM	0.15 µM	> 1000 µM	769.97 ± 0.22 µM	4.36 µM	5.55 µM	24.46 ± 0.53%	–	–
Cc1cc(NS(=O)(=O)c2ccc(/N=C/c3cc4c(O)c(c3)Cc3cc(C(C)(C)C)cc5c3OCC(=O)NCCNC(=O)COc3c(cc(C(C)(C)C)cc3Cc3cc(/C=N/c6ccc(S(=O)(=O)Nc7cc(C)on7)cc6)cc(c3O)C5)C4)cc2)no1 [CX-2]	> 1000 µM	> 100 µM	> 100 µM	> 100 µM	67.6 µM	> 1000 µM	> 1000 µM	> 100 µM	> 100 µM	19.55 ± 0.43%	–	–
COc1ccc2c3c1O[C@H]1C[C@@H](O)C=C[C@@]31CCN(C)C2 [Galantamine, reference compound]	–	–	–	–	–	–	–	–	–	–	–	76.5 ± 1.28%

From publication PMC7269057, “Synthesis of calix[4]azacrown substituted sulphonamides with antioxidant, acetylcholinesterase, butyrylcholinesterase, tyrosinase and carbonic anhydrase inhibitory action” (Journal of Enzyme Inhibition and Medicinal Chemistry, 2020)
